# Article PMC3720735 (PLoS ONE, 2013)
# Assays:
# [1] = target: T1, α7-nicotinic acetylcholine receptor (Homo sapiens, UniProt P36544); experiment: two-electrode voltage clamp of ACh currents in Xenopus oocytes expressing the human receptor; assay type: cell-based
# T1 construct: gene CHRNA7
# α7-nACh receptor = target: T2, α7-nACh receptor (Rattus norvegicus, UniProt Q05941); assay type: cell-based
# T2 construct: gene Chrna7
# T2 sequence (Q05941 23-502): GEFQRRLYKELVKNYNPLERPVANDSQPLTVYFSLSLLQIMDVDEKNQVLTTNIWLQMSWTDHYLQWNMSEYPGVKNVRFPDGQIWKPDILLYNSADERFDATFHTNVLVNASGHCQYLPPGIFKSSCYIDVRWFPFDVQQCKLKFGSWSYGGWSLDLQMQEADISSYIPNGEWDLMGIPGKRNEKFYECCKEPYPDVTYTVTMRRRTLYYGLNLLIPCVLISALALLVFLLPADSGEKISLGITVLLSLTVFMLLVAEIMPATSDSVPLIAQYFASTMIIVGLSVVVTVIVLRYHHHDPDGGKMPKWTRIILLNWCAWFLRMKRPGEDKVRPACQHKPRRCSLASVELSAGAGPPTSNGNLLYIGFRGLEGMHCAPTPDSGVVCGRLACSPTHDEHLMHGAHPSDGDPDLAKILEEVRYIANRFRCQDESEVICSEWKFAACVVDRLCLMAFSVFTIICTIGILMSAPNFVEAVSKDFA
# T1 sequence (P36544 23-502): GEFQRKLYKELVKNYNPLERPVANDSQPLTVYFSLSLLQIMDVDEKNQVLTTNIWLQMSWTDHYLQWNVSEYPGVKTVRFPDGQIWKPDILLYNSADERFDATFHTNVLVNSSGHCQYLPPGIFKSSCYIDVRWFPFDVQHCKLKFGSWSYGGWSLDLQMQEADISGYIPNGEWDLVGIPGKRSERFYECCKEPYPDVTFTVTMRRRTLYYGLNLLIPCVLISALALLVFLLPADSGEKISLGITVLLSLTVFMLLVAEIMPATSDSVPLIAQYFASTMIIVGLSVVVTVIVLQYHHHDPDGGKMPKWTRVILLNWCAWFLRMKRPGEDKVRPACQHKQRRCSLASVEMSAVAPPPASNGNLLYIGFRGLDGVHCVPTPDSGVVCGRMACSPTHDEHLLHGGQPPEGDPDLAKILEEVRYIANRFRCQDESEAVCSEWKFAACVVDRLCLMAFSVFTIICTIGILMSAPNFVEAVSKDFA
Compound,IC50 [1],"GCaMP5G Ca2+ imaging in PC12 cells (endogenous receptor), 10 μM, blocked by α-bu (α7-nACh receptor)"
CC1CCC(C(C)C)C(O)C1 (racemic) [menthol],32.6 ± 2.3 µM,–
O=C(N[C@H]1CN2CCC1CC2)c1ccc(Cl)cc1 [PNU282987],–,activation of the α7-nACh receptor with nicotine or the selective α7-agonist PNU282987 (PNU) was associated with a significant increase
